ChEMBL document CHEMBL6071148, “Synthesis and biological evaluation of novel 3,6- amide and thioamide substituted- 2,3,4,9-tetrahydro-1H-carbazoles for anti-cancer activity” (Eur J Med Chem, 2024)
Activity calls are given as the source filed them. No cut-off for these calls is given here.

Tests used:
Mitochondrial membrane [1] = experiment: Disruption of mitochondrial membrane integrity in human MCF7 cells assessed as presence of large mitochondria by TEM analysis; format: cell membranes
[2] = Cytotoxicity against human MRC5 cells assessed as inhibition of cell proliferation incubated for 72 hrs by MTT assay; format: toxicity, cell-based
Chorioallantoic membrane = experiment: Anti-angiogenesis activity in chicken embryo chorioallantoic membrane assessed as reduction in blood vessel formation by imaging analysis; format: functional, tissue-based; conditions: Gallus gallus, TDE = time-dependent effect
MCF7 [3] = experiment: Induction of apoptosis in human MCF7 cells assessed as increase in apoptotic cells incubated for 24 hrs by Annexin-V and 7-AAD staining based flow cytometric analysis (reference value: 5.70 +/- 1.56%); format: functional
MCF7 [4] = experiment: Antitumor activity against human MCF7 cells xenografted in chicken embryo chorioallantoic membrane assessed as reduction in tumor size; format: functional, cell-based; conditions: dose 1.5-4.5 µM
Mitochondrial membrane [5] = experiment: Disruption of mitochondrial membrane integrity in human A549 cells assessed as change in mitochondrial size by TEM analysis; format: cell membranes
Mitochondrial membrane [6] = experiment: Disruption of mitochondrial membrane integrity in human MCF7 cells assessed as organization of mtDNA nucleoids within cells by TEM analysis; format: cell membranes
MCF7 [7] = experiment: Cytotoxicity against human MCF7 cells assessed as inhibition of cell proliferation incubated for 72 hrs by MTT assay; format: functional, cell-based; conditions: MCF7, 72 h
A549 [8] = experiment: Induction of cell cycle arrest in human A549 cells assessed as accumulation of cells at S phase at IC50 incubated for 48 hrs by PI staining based flow cytometric analysis (reference value: 17.825 +/- 3.70%); format: functional
Mitochondrial membrane [9] = experiment: Induction of mitochondrial membrane depolarization in human MCF7 cells assessed as increase in mitochondrial fission by measuring appearance of circular mitochondria by confocal microscopic analysis; format: cell membranes
A549 [10] = experiment: Induction of apoptosis in human A549 cells assessed as apoptotic rate at IC50 incubated for 48 hrs by Annexin-V and 7-AAD staining based flow cytometric analysis (reference value: 6.56 +/- 1.17%); format: functional
Mitochondrial membrane [11] = experiment: Disruption of mitochondrial membrane integrity in human MCF7 cells assessed as change in mitochondrial internal organization by TEM analysis; format: cell membranes
Mitochondrial membrane [12] = experiment: Disruption of mitochondrial membrane integrity in human A549 cells assessed as mitochondrial swelling by TEM analysis; format: cell membranes
A549 [13] = experiment: Induction of DNA damage in human A549 cells assessed as gammaH2AX positive cells at IC50 incubated for 48 hrs by PI staining based flow cytometric analysis (reference value: 4.90 +/- 0.50%); format: functional
MCF7 [14] = experiment: Induction of apoptosis in human MCF7 cells assessed as increase in apoptotic cells incubated for 48 hrs by Annexin-V and 7-AAD staining based flow cytometric analysis (reference value: 7.53 +/- 1.16%); format: functional
A549 [15] = experiment: Induction of cell cycle arrest in human A549 cells assessed as accumulation of cells at S phase at IC50 incubated for 24 hrs by PI staining based flow cytometric analysis (reference value: 39.41 +/- 2.54%); format: functional
Mitochondrial membrane [16] = experiment: Disruption of mitochondrial membrane integrity in human A549 cells assessed as change in mitochondrial shape by TEM analysis; format: cell membranes
MCF7 [17] = experiment: Induction of cell cycle arrest in human MCF7 cells assessed as accumulation of cells at G1 phase at IC50 incubated for 24 hrs by PI staining based flow cytometric analysis relative to control; format: functional
Mitochondrial membrane [18] = experiment: Disruption of mitochondrial membrane integrity in human A549 cells assessed as change in mitochondrial internal organization by TEM analysis; format: cell membranes
A549 [19] = experiment: Cytotoxicity against human A549 cells assessed as inhibition of cell proliferation incubated for 72 hrs by MTT assay; format: functional, cell-based; conditions: A549, 72 h
Mitochondrial membrane [20] = experiment: Disruption of mitochondrial membrane potential in human A549 cells assessed as translocation of cytochrome c to cytoplasm at IC50 incubated for 48 hrs by confocal microscopic analysis; format: cell membranes
Mitochondrial membrane [21] = experiment: Disruption of mitochondrial membrane integrity in human A549 cells assessed as absence of well-developed cristae by TEM analysis; format: cell membranes
Mitochondrial membrane [22] = experiment: Induction of mitochondrial membrane depolarization in human A549 cells assessed as decrease in ratio of J-aggregates to J-monomer incubated for 24 hrs by JC-1 staining based flow cytometric analysis (reference value: 17.72 +/- 3.94%); format: cell membranes
Mitochondrial membrane [23] = experiment: Disruption of mitochondrial membrane potential in human MCF7 cells assessed as translocation of cytochrome c to cytoplasm at IC50 incubated for 48 hrs by confocal microscopic analysis; format: cell membranes
Mitochondrial membrane [24] = experiment: Disruption of mitochondrial membrane integrity in human MCF7 cells assessed as disruption of normal mitochondrial distribution by TEM analysis; format: cell membranes
A549 [25] = experiment: Induction of cell cycle arrest in human A549 cells assessed as accumulation of cells at G2 phase at IC50 incubated for 24 hrs by PI staining based flow cytometric analysis (reference value: 23.45 +/- 1.62%); format: functional
MCF7 [26] = experiment: Induction of cell cycle arrest in human MCF7 cells assessed as accumulation of cells at S phase at IC50 incubated for 48 hrs by PI staining based flow cytometric analysis; format: functional
Mitochondrial membrane [27] = experiment: Disruption of mitochondrial membrane integrity in human MCF7 cells assessed as absence of well-developed cristae by TEM analysis; format: cell membranes
MCF7 [28] = experiment: Induction of cell cycle arrest in human MCF7 cells assessed as accumulation of cells at G2 phase at IC50 incubated for 24 hrs by PI staining based flow cytometric analysis relative to control; format: functional
Mitochondrial membrane [29] = experiment: Disruption of mitochondrial membrane integrity in human MCF7 cells assessed as presence of bloated mitochondria by TEM analysis; format: cell membranes
Mitochondrial membrane [30] = experiment: Disruption of mitochondrial membrane integrity in human A549 cells assessed as disruption of normal mitochondrial distribution by TEM analysis; format: cell membranes
Mitochondrial membrane [31] = experiment: Disruption of mitochondrial membrane integrity in human MCF7 cells assessed as change in mitochondrial shape by TEM analysis; format: cell membranes
Mitochondrial membrane [32] = experiment: Disruption of mitochondrial membrane integrity in human A549 cells assessed as presence of large mitochondria by TEM analysis; format: cell membranes
Mitochondrial membrane [33] = experiment: Disruption of mitochondrial membrane integrity in human MCF7 cells assessed as mitochondrial swelling by TEM analysis; format: cell membranes
MCF7 [34] = experiment: Antitumor activity against human MCF7 cells xenografted in chicken embryo chorioallantoic membrane assessed as change in nuclear morphology at 1.5 to 4.5 uM by H and E staining based analysis; format: functional, cell-based; conditions: dose 1.5-4.5 µM
MCF7 [35] = experiment: Antitumor activity against human MCF7 cells xenografted in chicken embryo chorioallantoic membrane assessed as necrosis at 1.5 to 4.5 uM by H and E staining based analysis; format: functional, cell-based; conditions: dose 1.5-4.5 µM
A549 [36] = experiment: Antitumor activity against human A549 cells xenografted in chicken embryo chorioallantoic membrane assessed as change in nuclear morphology at 1.5 to 4.5 uM by H and E staining based analysis; format: functional, cell-based; conditions: dose 1.5-4.5 µM
A549 [37] = experiment: Antitumor activity against human A549 cells xenografted in chicken embryo chorioallantoic membrane assessed as necrosis at 1.5 to 4.5 uM by H and E staining based analysis; format: functional, cell-based; conditions: dose 1.5-4.5 µM
MCF7 [38] = experiment: Inhibition of cell adhesion in human MCF7 cells assessed as reduction in cell aggregates formation at IC50 incubated for 48 hrs by inverted phase contrast microscopic analysis; format: functional, cell-based
A549 [39] = experiment: Induction of apoptosis in human A549 cells assessed as apoptotic rate at IC50 incubated for 24 hrs by Annexin-V and 7-AAD staining based flow cytometric analysis (reference value: 4.56 +/- 0.81%); format: functional

Activity (Mitochondrial membrane [1]): Active
Activity (Mitochondrial membrane [5]): Active
Activity (Mitochondrial membrane [9]): Active
Activity (Mitochondrial membrane [11]): Active
Activity (Mitochondrial membrane [12]): Active
Activity (Mitochondrial membrane [16]): Active
Activity (Mitochondrial membrane [18]): Active
Activity (Mitochondrial membrane [20]): Active
Activity (Mitochondrial membrane [21]): Active
Activity (Mitochondrial membrane [22]): 8.73
Activity (Mitochondrial membrane [23]): Active
Activity (Mitochondrial membrane [24]): Active
Activity (Mitochondrial membrane [27]): Active
Activity (Mitochondrial membrane [29]): Active
Activity (Mitochondrial membrane [30]): Active
Activity (Mitochondrial membrane [31]): Active
Activity (Mitochondrial membrane [32]): Active
Activity (Mitochondrial membrane [33]): Active
Compound: CC(=S)NC1CCc2[nH]c3ccc(Br)cc3c2C1 (stereo not given)
IC50 at 72 h [2]: > 50 µM
Activity (Chorioallantoic membrane): Tde
Activity (MCF7 [3]): 10.8%
Activity (MCF7 [4]): Dose-Dependent Effect
Activity (Mitochondrial membrane [6]): Active
IC50 (MCF7 [7]): 3.81 µM
Activity (A549 [8]): 30.8%
Activity (A549 [10]): 42.87%
Activity (A549 [13]): 11.98%
Activity (MCF7 [14]): 47.28%
Activity (A549 [15]): 27.15%
Activity (MCF7 [17]): 33.7%
IC50 (A549 [19]): 4.54 µM
Activity (A549 [25]): 14.3%
Activity (MCF7 [26]): Active
Activity (MCF7 [28]): 25.95%
Activity (MCF7 [34]): Active
Activity (MCF7 [35]): Active
Activity (A549 [36]): Active
Activity (A549 [37]): Active
inhibition (MCF7 [38]): Active
Activity (A549 [39]): 20.75%
